Where two headings read alike, the source gives them in different places.
Key:
[1] = test system: edema induced by phorbol 12-myristate 13-acetate (PMA) in ears of mice; assay: Mouse Ear Edema Assay (PMA-induced edema, topical); format: in vivo; conditions: for % Inhibition (of edema relative to PMA control) / Mean Edema (mgs ± SEM): topical, 50 μg/ear with PMA 2 μg/ear, 3 hours 20 minutes; for Mean Edema (mgs ± SEM): PMA controls 17.7 ± 0.6
Protocol: The pseudopterosin ethers were topically applied in acetone to the inside pinnae of the ears of mice in a solution containing the edema-causing irritant, phorbol 12-myristate 13-acetate (PMA). PMA alone (2 μg/ear) or in combination with 50 μg/ear of test compound was applied to the left ears (5 mice per treatment group) and acetone is applied to all right ears. After 3 hours 20 minutes incubation, the mice were sacrificed, the ears removed, and bores taken and weighed. Edema was measured by subtracting the weight of the right ear (acetone control) from the weight of the left ear (treated). Results were recorded as percent decrease (inhibition) or percent increase (potentiation) in edema relative to the PMA control group edema.

[2] = test system: bovine articular cartilage explants; assay: Inhibition of IL-1-induced Cartilage Degradation in the Presence of Human Plasminogen (35S glycosaminoglycan release); format: cell-based, bovine (calf); conditions: for % Inhibition @ 30 μM (Explant) / IC50: plasminogen 0.4 μM plus IL-1 0.5 ng/mL, 96 hours; for IC50: explant
Protocol: (§1) The ether derivatives were also tested to determine their usefulness in inhibiting degradation of cartilage. Bovine articular cartilage explants labeled with ^35 Sulfate were used to monitor chondrocyte-mediated cartilage degradation in the presence of plasminogen, at concentrations similar to that measured in synovial fluid (0.4 μM), cartilage is extremely sensitive to the effects of IL-1-stimulated degradation. Stimulated chondrocytes produce and activate plasminogen activator (uPA), causing conversion of plasminogen to plasmin. Plasmin is not only an effective activator of the MMP's, but also an effective proteoglycanase. Inhibitors were added to the assay concomitant with the cytokine IL-1, and their effect was monitored by measuring differences in ^35 S glycosaminoglycan release, as compared to appropriate controls.
(§2) Plasminogen (from human plasma) was obtained from Athens Research and Technology, Athens, Ga. Recombinant Human Interleukin-1-α was obtained from R&D Systems, Minneapolis, Minn. DMEM was obtained from Gibco, Grand Island, New York. ^35 S-Sodium Sulfate was obtained from Amersham, Arlington Heights, Ill.
(§3) Bovine (calf) radiocarpal joints were acquired from a local abbatoir immediately after sacrifice and transported on ice. The joints were then washed thoroughly and placed in ice containing approximately 25% Povidine (10% Povidone-lodine topical solution). The joints were then dissected in a sterile hood using good sterile technique. Media (DMEM containing 4.5 g/L D-Glucose and L-Glutamine, without sodium pyruvate) was supplemented with HEPES buffer and sodium bicarbonate, and the pH adjusted to 7.4. The media was further supplemented with penicillin and streptomycin (100 units/mL and 100 μg/ml, respectively) and 50 μg/mL L-ascorbic acid. The cartilage surfaces were exposed, and the synovial fluid was wiped away with sterile gauze. A sterile cork-borer with a diameter of 3.5 millimeters was used to remove uniform plugs of cartilage. Proper orientation was maintained by distinguishing the underlying bony layer in the plugs (only the articulating surface of the cartilage plugs were used in the experiments). The plugs were placed in a sterile flask, washed four times with 50 mL of fresh media, and then placed in an incubator (37 degrees centigrade, with 5% CO2 /95% air, with adequate humidity) and allowed to equilibrate for 1 hour. A 1 mm thick slice of the articulating surface was sliced off of each individual cartilage plug, using a specially designed template to obtain uniform thickness. The cartilage disks were then labeled en mass with ^35 Sulfate at a concentration of approximately 10 μCi/mL for approximately 72-96 hours, with hand-stirring every few hours. Subsequent to labeling, explants were equilibrated with fresh media each 48 hours. The total time for labeling/equilibration was approximately one week from acquisition/dissection of tissue.
(§4) For testing of ether derivatives, individual explants were transferred to 96-well plates containing 250μL of media with or without Plasminogen plus IL-1, and with or without ether derivative. […] All other groups in any assay would contain ether derivative along with concomitant plasminogen plus IL-1. Five samples were routinely used, with concentrations of plasminogen plus IL-1 of 0.4 μM and 0.5 ng/mL, respectively. The assay is allowed to incubate for 96 hours, prior to counting a 50 μL sample of supernatant from each well. A 50 μL sample of a papain digest of each explant is also counted for each respective well. From the counts released into the supernatant over four days, and the total counts present, the data can be expressed as % glycosaminoglycan (GAG) over the four days). The media alone % GAG release values are subtracted from all other values where plasminogen plus IL-1 were present (media alone represents the background for the system). […]

[3] = test system: bovine articular cartilage explants; assay: Interleukin-1 mediated cartilage degradation, with or without plasminogen (35S-GAG release); format: cell-based, bovine (calf); conditions: for degradation by plasminogen alone (in words): 0.4 μM human plasminogen alone
Protocol: as §1, §2, §3, §4

CCCCCCCCCCCCCCCCCCOc1c(C)c2c3c(c1O[C@@H]1OC[C@@H](O)[C@H](O)[C@H]1O)[C@@H](C)CC[C@@H]3[C@@H](C)C[C@@H]2C=C(C)C [WF 335, Pseudopterosin A Octadecanyl ether]
% Inhibition (of edema relative to PMA control) [1]: 54.4%
Mean Edema (mgs ± SEM) [1]: 8.0 ± 1.2 mgs
% Inhibition @ 30 μM (Explant) [2]: 27%
IC50 ([2]; Bos taurus, read-out: IC50): > 30 µM

CC(C)=C[C@H]1C[C@H](C)[C@H]2CC[C@H](C)c3c(O[C@@H]4OC[C@@H](O)[C@H](O)[C@H]4O)c(OCc4ccccc4)c(C)c1c32 [WF 332, Pseudopterosin A Benzyl ether]
% Inhibition (of edema relative to PMA control) [1]: 68.3%
Mean Edema (mgs ± SEM) [1]: 5.6 ± 1.0 mgs
% Inhibition @ 30 μM (Explant) [2]: 57%
IC50 ([2]; Bos taurus, read-out: IC50): 26 µM

CCCCCCCCCCOc1c(C)c2c3c(c1O[C@@H]1OC[C@@H](O)[C@H](O)[C@H]1O)[C@@H](C)CC[C@@H]3[C@@H](C)C[C@@H]2C=C(C)C [WF 334, Pseudopterosin A Decanyl ether]
% Inhibition (of edema relative to PMA control) [1]: 60.7%
Mean Edema (mgs ± SEM) [1]: 7.0 ± 0.9 mgs
% Inhibition @ 30 μM (Explant) [2]: Inconclusive
IC50 [2]: Inconclusive

bis pseudopterosin A pentanyl diether [WF 338]
anti-inflammatory activity (in words) ([1]; mouse ear edema, comparison compound): little if any anti-inflammatory activity
% Inhibition (of edema relative to PMA control) [1]: 6.7%
Mean Edema (mgs ± SEM) [1]: 16.5 ± 1.2 mgs
% Inhibition @ 30 μM (Explant) [2]: 0%
inhibition of explant degradation (in words) ([2]; as can be seen from TABLE 2): inhibited explant degradation, except for WF 338
IC50 ([2]; read-out: IC50): > 30 µM

CC(C)=C[C@H]1C[C@H](C)[C@H]2CC[C@H](C)c3c(O[C@@H]4OC[C@@H](O)[C@H](O)[C@H]4O)c(OCC(N)=O)c(C)c1c32 [WF 337, Pseudopterosin A Acetamide ether]
% Inhibition (of edema relative to PMA control) [1]: 52.6%
Mean Edema (mgs ± SEM) [1]: 8.4 ± 1.4 mgs
% Inhibition @ 30 μM (Explant) [2]: 74%
IC50 ([2]; Bos taurus, read-out: IC50): 15 µM

CC(C)=C[C@H]1C[C@H](C)[C@H]2CC[C@H](C)c3c(O[C@@H]4OC[C@@H](O)[C@H](O)[C@H]4O)c(OCCCCO)c(C)c1c32 [WF 336, Pseudopterosin A Butanol ether]
% Inhibition (of edema relative to PMA control) [1]: 69.9%
Mean Edema (mgs ± SEM) [1]: 5.3 ± 0.9 mgs
% Inhibition @ 30 μM (Explant) [2]: 73%
IC50 ([2]; Bos taurus, read-out: IC50): 19 µM

CCCCCOc1c(C)c2c3c(c1O[C@@H]1OC[C@@H](O)[C@H](O)[C@H]1O)[C@@H](C)CC[C@@H]3[C@@H](C)C[C@@H]2C=C(C)C [WF 333, Pseudopterosin A Pentyl ether]
% Inhibition (of edema relative to PMA control) [1]: 62.2%
Mean Edema (mgs ± SEM) [1]: 6.7 ± 1.0 mgs
% Inhibition @ 30 μM (Explant) [2]: 58%
IC50 ([2]; Bos taurus, read-out: IC50): > 40 µM

B1: human plasminogen: Plasminogen (from human plasma) was obtained from Athens Research and Technology, Athens, Ga. (protein, UniProt P00747 20-810, looked up)
Plasminogen: EPLDDYVNTQGASLFSVTKKQLGAGSIEECAAKCEEDEEFTCRAFQYHSKEQQCVIMAENRKSSIIIRMRDVVLFEKKVYLSECKTGNGKNYRGTMSKTKNGITCQKWSSTSPHRPRFSPATHPSEGLEENYCRNPDNDPQGPWCYTTDPEKRYDYCDILECEEECMHCSGENYDGKISKTMSGLECQAWDSQSPHAHGYIPSKFPNKNLKKNYCRNPDRELRPWCFTTDPNKRWELCDIPRCTTPPPSSGPTYQCLKGTGENYRGNVAVTVSGHTCQHWSAQTPHTHNRTPENFPCKNLDENYCRNPDGKRAPWCHTTNSQVRWEYCKIPSCDSSPVSTEQLAPTAPPELTPVVQDCYHGDGQSYRGTSSTTTTGKKCQSWSSMTPHRHQKTPENYPNAGLTMNYCRNPDADKGPWCFTTDPSVRWEYCNLKKCSGTEASVVAPPPVVLLPDVETPSEEDCMFGNGKGYRGKRATTVTGTPCQDWAAQEPHRHSIFTPETNPRAGLEKNYCRNPDGDVGGPWCYTTNPRKLYDYCDVPQCAAPSFDCGKPQVEPKKCPGRVVGGCVAHPHSWPWQVSLRTRFGMHFCGGTLISPEWVLTAAHCLEKSPRPSSYKVILGAHQEVNLEPHVQEIEVSRLFLEPTRKDIALLKLSSPAVITDKVIPACLPSPNYVVADRTECFITGWGETQGTFGAGLLKEAQLPVIENKVCNRYEFLNGRVQSTELCAGHLAGGTDSCQGDSGGPLVCFEKDKYILQGVTSWGLGCARPNKPGVYVRVSRFVTWIEGVMRNN
degradation by plasminogen alone (in words) [3]: does not induce any degradation above control levels
degradation by plasminogen alone (in words) ([3]; listed as plasminogen): same results as media alone

B2: IL-1-α: Recombinant Human Interleukin-1-α was obtained from R&D Systems, Minneapolis, Minn. (protein, UniProt P01583 113-271, looked up)
Interleukin-1 alpha: SAPFSFLSNVKYNFMRIIKYEFILNDALNQSIIRANDQYLTAAALHNLDEAVKFDMGAYKSSKDDAKITVILRISKTQLYVTAQDEDQPVLLKEMPEIPKTITGSETNLLFFWETHGTKNYFTSVAHPNLFIATKQDYWVCLAGGPPSITDFQILENQA
35S-GAG release ([3]; IL-1-α 0.4 ng/mL plus plasminogen 0.4 μM, four day assay): approximately 50%
GAG release ([3]; IL-1-α 1 ng/mL plus 0.5 μM plasminogen): greater than 90%
increase in degradation over control ([3]; IL-1-α 2.5 ng/mL, without plasminogen): two-fold increase
release of 35S-labeled GAG ([3]; IL-1-α 10 ng/mL, without plasminogen): ~35%
dose dependence of degradation (in words) ([3]; IL-1-α, without plasminogen): induces degradation in bovine articular cartilage explants in a dose-dependent manner

— patent publication US5624911A, “Ether derivatives of pseudopterosin” (The Regents of the University of California, priority 1995, dated 1997)
